The text below walks through data of paper PMC10989010, “A panel of janus kinase inhibitors identified with anti-inflammatory effects protect mice from lethal influenza virus infection” (Antimicrobial Agents and Chemotherapy, 2024).

Structures can show the parent of a compound that is named as a salt. Where two headings read alike, the source gives them in different places.

The nature of data set [1]: Cytotoxicity assay (CellTiter-Glo). The format is cell-based, human. As to conditions: human. As to the method:
(§1) The compound cytotoxicity was determined by CellTiter-Glo Assay (Promega, Madison, WI, USA). After adding 15 µL of CellTiter-Glo reagent to each well, plates were incubated at room temperature for 15 minutes with shaking. The luminescence intensity was determined by a multimode plate reader (Wallac Envision, PerkinElmer, MA, USA).
In general terms: In ATP-based viability assays light output follows the ATP content of the culture.

Another data set relates to U937 cells. Description: Cytotoxicity assay (CellTiter-Glo). It is filed as cell-based, human. Particulars: U937 cells; CellTiter-Glo; mean of three independent experiments. As to the method: as §1
The test system of the next data set is IP-10. Nature of the data set: cells. It is filed as cell-based, human. As to conditions: read-out: IC50 IP-10.
The subject of a further data set is IL-8. Description: U937 cell-based anti-inflammatory assay for influenza virus infection, IL-8 production (AlphaLISA). On the set-up: species or system human. Particulars: read-out: IC50 IL-8. As to the method: U937 cells were seeded in a 96-well culture plate at a density of 1.5 × 10^5 cells per well and incubated for 24 hours prior to virus infection. Subsequently, the cells in each well were infected with the PR8 virus at a multiplicity of infection of 0.05 and treated with serially diluted drugs or left untreated as a control. The drugs were serially diluted threefold, starting from an initial concentration of 200 µM down to 0.01 µM. […] Following this incubation, the supernatants were collected and subjected to AlphaLISA analysis to determine IL-8, IP-10, and MCP1 protein levels.
The AlphaLISA detection kits employed in this study were IL-8 (PerkinElmer AL224), IP-10 (PerkinElmer AL259), and MCP1 (PerkinElmer, AL244). U937 cell culture supernatants were measured for IL-8, IP-10, and MCP-1 protein levels using AlphaLISA assay as per the manufacturer’s recommendations. The ELISA and AlphaLISA plates were read using the Varioskan LUX multimode microplate reader (Thermo Scientiﬁc, Waltham, MA, USA).
In general terms: Bead proximity is the source of the signal in Alpha formats.

Another data set deals with MCP1. Description: cells. The format is cell-based, human. As to conditions: read-out: IC50 MCP1.
The mark [2] stands for this setting: U937 cells, CellTiter-Glo, mean of three independent experiments, read-out: CC50.

The CC50 is the concentration that lowers cell viability or growth by half. As usually defined, the IC50 is the point on the concentration scale where inhibition reaches its midpoint.

With `C[C@@H]1CCN(C(=O)CC#N)C[C@@H]1N(C)c1ncnc2[nH]ccc12` [Tofacitinib citrate], in data set [1] (setting [2]), the half-maximal cytotoxic concentration (CC50) was greater than 100000 nM.

In the case of `CCS(=O)(=O)N1CCN(c2ccc(Nc3ncc(C(N)=O)c(NC4CC4)n3)cc2)CC1` [Cerdulatinib hydrochloride], the CC50 in the data set on U937 cells amounted to 3500 nM. The IC50 with IP-10 (Homo sapiens, U-937, 72 h) is 50 nM; with IL-8 (Homo sapiens, U-937, 72 h), less than 5 nM; with MCP1 (Homo sapiens, U-937, 72 h) it was 20 nM.

As to `O=C(Nc1ccc(-c2ccnc(Nc3ccc(N4CCOCC4)cc3)n2)cc1)C1CCCN1` (stereo not drawn) [XL019], the midpoint of cytotoxicity in the data set with U937 cells, the CC50, lay at 26700 nM. Besides, the concentration for half-maximal inhibition (IC50) came to 990 nM in the data set with IP-10 (Homo sapiens, U-937, 72 h); 510 nM with IL-8 (Homo sapiens, U-937, 72 h); 940 nM with MCP1 (Homo sapiens, U-937, 72 h).

With `N#CC[C@H](C1CCCC1)n1cc(-c2ncnc3[nH]ccc23)cn1` [Ruxolitinib], in the data set on U937 cells, the CC50 came out at 100000 nM. The IC50 in the data set on IP-10 (Homo sapiens, U-937, 72 h) came to 70 nM; in the data set on IL-8 (Homo sapiens, U-937, 72 h), 120 nM; with MCP1 (Homo sapiens, U-937, 72 h), 30 nM.

On to `CC[C@@](C)(Nc1ccnc(-c2c[nH]c3ncccc23)n1)C(=O)NCC(F)(F)F` [Decernotinib], for which the CC50 in the data set on U937 cells was determined as 50000 nM. The IC50 with IP-10 (Homo sapiens, U-937, 72 h) worked out at 100 nM; in the data set with MCP1 (Homo sapiens, U-937, 72 h), 50 nM.

`CCS(=O)(=O)N1CC(CC#N)(n2cc(-c3ncnc4[nH]ccc34)cn2)C1` [Baricitinib] had a cytotoxic concentration (CC50) with U937 cells greater than 100000 nM.

`C[C@@H]1CCN(C(=O)CC#N)C[C@@H]1N(C)c1ncnc2[nH]ccc12` [Tofacitinib] displayed a half-maximal cytotoxic concentration (CC50) in the data set on U937 cells greater than 100000 nM.

As for `Cc1cc(Nc2nc(N[C@@H](C)c3ncc(F)cn3)ncc2Cl)n[nH]1` [AZD1480], the CC50 in data set [1] (setting [2]) is 13500 nM. For the same compound, the concentration for half-maximal inhibition (IC50) in the data set with IP-10 (Homo sapiens, U-937, 72 h) is 1000 nM; with IL-8 (Homo sapiens, U-937, 72 h), 1100 nM; in the data set on MCP1 (Homo sapiens, U-937, 72 h), 300 nM.

In the case of `NC(=O)c1cnc2[nH]ccc2c1N[C@@H]1[C@@H]2CC3C[C@H]1C[C@@](O)(C3)C2` [Peficitinib], it took 34700 nM to reach half-maximal cytotoxicity in data set [1] (CC50). Further, the half-maximal inhibitory concentration (IC50) with IP-10 (Homo sapiens, U-937, 72 h) worked out at 20 nM; in the data set with IL-8 (Homo sapiens, U-937, 72 h), 10 nM.

In the data set with U937 cells, `CN1CCN(c2cccc(Nc3nc4c(-c5ccc(S(C)(=O)=O)cc5)cccn4n3)c2)CC1` [CEP-33779] had a CC50 of 10500 nM. In addition, the IC50 in the data set with IP-10 was found to be 220 nM; in the data set on IL-8 (U937 cells infected with PR8 virus, 72 hours, Alphalisa, mean of three independent experiments) it was 360 nM; in the data set with MCP1 it was 240 nM.

In the case of `N#CCNC(=O)c1ccc(-c2ccnc(Nc3ccc(N4CCOCC4)cc3)n2)cc1` [Momelotinib], in the data set on U937 cells, it took 5400 nM to reach half-maximal cytotoxicity (CC50). The IC50 in the data set with IP-10 (Homo sapiens, U-937, 72 h) was 480 nM; with IL-8 (Homo sapiens, U-937, 72 h) it was 300 nM; in the data set on MCP1 (Homo sapiens, U-937, 72 h) it was 30 nM.

Compound `Cc1cc(Nc2nc(N[C@@H](C)c3ccc(F)cc3)c(C#N)cc2F)n[nH]1` [AZ 960] displayed a CC50 in the data set on U937 cells of 6000 nM. Besides, the IC50 with IP-10 (Homo sapiens, U-937, 72 h) is 10 nM; with IL-8 (Homo sapiens, U-937, 72 h) it was less than 5 nM; with MCP1 (Homo sapiens, U-937, 72 h), less than 5 nM.

On to `N#CC[C@@H](C1CCCC1)n1cc(-c2ncnc3[nH]ccc23)cn1` [S-Ruxolitinib], for which the CC50 in data set [1] (setting [2]) stood at 100000 nM. Moreover, the IC50 in the data set with IP-10 (Homo sapiens, U-937, 72 h) turned out to be 80 nM; in the data set on IL-8 (Homo sapiens, U-937, 72 h), 30 nM; in the data set with MCP1 (Homo sapiens, U-937, 72 h), 60 nM.

`Cc1cc(Nc2cc(CN3CCOCC3)c3nc(C)c(Cc4ccc(Cl)cc4F)n3n2)n[nH]1` [Gandotinib] returned a 50% cytotoxic concentration (CC50) with U937 cells of 26000 nM. The half-maximal inhibitory concentration (IC50) is 10 nM in the data set with IP-10 (Homo sapiens, U-937, 72 h); less than 5 nM with IL-8 (Homo sapiens, U-937, 72 h); less than 5 nM with MCP1 (Homo sapiens, U-937, 72 h).
